Experiments:
[1] = system: Diamond Back Moth (Plutella xylostella Linné); assay: Insecticidal test for diamond back moth; format: in vivo; conditions: 144 h, cabbage leaves dipped in 500 ppm aqueous emulsion, second larvae, 25° C., after 6 days
Method: The leaves of cabbage were dipped in a 500 ppm aqueous emulsion of a compound of the invention for about 10 seconds. After having been dried in air, the thus-treated leaves were put into laboratory dishes. Ten (10) second larvae of diamond back moth (Plutella xylostella) were released in each dish. Each dish was covered with a perforated cover, and stored in a thermostatic chamber at 25° C. […] Each compound was tested in that manner for two groups of dishes.

[2] = system: Brown Rice Planthopper (Nilaparvata lugens Stal); assay: Insecticidal test for brown rice planthopper; format: in vivo; conditions: 144 h, 500 ppm solution applied to rice stems and leaves, second instar nymphae, after 6 days
Description: The stems and leaves of rice-plants in 1/20,000 are pot were sufficiently applied with the resulting solution. After the thus-applied chemical solution was dried in air, each pot was covered with a cylindrical cover. Ten (10) second instar nymphae of brown rice planthoppers (Nilaparvata lugens) were released in each pot. After having been thus covered, the pots were stored in a thermostatic chamber. After 6 days passed, the insects in each pot were observed, and the mortality thereof was determined according to the following equation. Each compound was tested in that manner for two groups of pots. Mortality (%)=([number of insect killed/(number of insect killed+number of living insect)]×100

[3] = system: Cucurbit Leaf Beetles (Aulacophora femoralis Motschulsky); assay: Insecticidal test for cucurbit leaf beetles; format: in vivo; conditions: 144 h, cucumber leaves dipped in 500 ppm solution, second instar nymphae, 25° C., after 6 days
Method: The leaves of cucumbers were dipped in this chemical solution for about 10 seconds, dried in air, and put into a laboratory dish. Ten (10) second instar nymphae of cucurbit leaf beetles (Aulacophora femoralis) were released in each dish. Each dish was covered with a cover, and stored in a thermostatic chamber at 25° C. […] Each compound was tested in that manner for two groups of dishes.

[4] = system: Two-Spotted Spider Mites (Tetranychus urticae Koch); assay: whole plant or invertebrate; format: in vivo; conditions: foliar, 500 ppm solution sprayed 2 ml/cup on kidney bean leaf discs, larvae, 25° C., after 96 hours
Method: The leaves of kidney bean plants were punched into 3 cm-diameter discs, using a leaf punch, and put onto moistured filter paper in a 7 cm-diameter styrol cup. Ten (10) larvae of two-spotted spider mites (Tetranychus urticae) were put to each leaf. […] The solution was sprayed over each cup in an amount of 2 ml/cup, using a rotary sprinkler, and the cups were stored in a thermostatic chamber at 25° C. […] Each compound was tested in that manner for two groups of cups.

[5] = system: Green Peach Aphids (Myzus persicae Sulzer); assay: Insecticidal test for green peach aphids; format: in vivo; conditions: 144 h, 500 ppm spray (2.5 mg/cm^2) on cabbage leaf, apterous adults, larvae and adults counted after 6 days
Method: Moistured filter paper was placed in each laboratory glass dish having an inner diameter of 3 cm, and a leaf cabbage having the same diameter as that of the dish was put on the filter paper. Four female, apterous adults of green peach aphids (Myzus persicae) were put on the cabbage leaf. Fllowing day, a chemical sample (2.5 mg/cm^2) was sprayed over the dishes, using a rotary sprinkler. […] After 6 days passed, the insects in each cylinder were observed, and mortality of the insects (larvae and adults) was determined according to the following equation. Each compound was tested in that manner for two groups of dishes. Mortality (%)=[number of insect killed/(number of insect killed+number of living insect)]×100

Row | Structure (SMILES) | mortality at 500 ppm [1] [%] | mortality at 500 ppm [3] [%] | mortality at 500 ppm [4] [%] | also measured
1 | Cn1nc(Cl)c(C(O)=C(C#N)c2csc(-c3ccccc3)n2)c1Cl [II-1, 3-(1-methyl-3,5-dichloropyrazol-4-yl)-2-(2-phenylthiazol-4-yl)-3-hydroxyacrylonitrile] | ≥ 80 | 100 | – | mortality at 500 ppm [2]: ≥ 80%
2 | Cn1nc(C(F)(F)F)c(C(O)=C(Br)n2ccc(-c3c(F)cccc3F)n2)c1Cl | – | – | – | melting point: 123 to 125 °C
3 | Cn1nc(Cl)c(C(=O)OC(=C(C#N)c2ccc(C(F)(F)F)cc2)c2c(Cl)nn(C)c2Cl)c1Cl [IV-5, 2-(4-trifluoromethylphenyl)-3-(1-methyl-3,5-dichloropyrazol-4-yl)-3-(1-methyl-3,5-dichloropyrazole-4-carbonyloxy)acrylonitrile] | – | – | ≥ 80 | –
4 | Cn1nc(Cl)c(C(O)=C(C#N)c2ccc(C(C)(C)C)cc2)c1Cl [IV-18, 2-(4-tert-butylphenyl)-3-(1-methyl-3,5-dichloropyrazol-4-yl)-3-hydroxyacrylonitrile] | – | – | ≥ 80 | –
5 | Cn1nc(Cl)c(C(=O)C(Br)c2ccccc2)c1Cl (stereo not shown) | – | – | – | melting point: 74.5 to 75.5 °C
6 | Cn1nc(Cl)c(C(O)=C(C#N)c2coc(C(C)(C)C)n2)c1Cl [V-40, 2-{2-tert-butyloxazol-4-yl}-3-(3,5-dichloro-1-methyl-pyrazol-4-yl)-3-hydroxyacrylonitrile] | – | 100 | ≥ 80 | –
7 | Cn1nc(C(F)(F)F)c(C(OC(=O)C(C)(C)C)=C(C#N)c2nc(C(C)(C)C)cs2)c1Cl [III-6, 3-(1-methyl-3-trifluoromethyl-5-chloropyrazol-4-yl)-2-(4-tert-butylthiazol-2-yl)-3-pivaloyloxyacrylonitrile] | ≥ 80 | 100 | ≥ 80 | mortality at 500 ppm [5]: ≥ 80%; mortality at 500 ppm [2]: ≥ 80%
8 | Cn1nc(C(F)(F)F)c(C(OC(=O)C(C)(C)C)=C(C#N)c2ccc(C(C)(C)C)cc2)c1Cl [IV-24, 2-(4-tert-butylphenyl)-3-(1-methyl-3-trifluoromethyl-5-chloropyrazol-4-yl)-3-pivaloyloxyacrylonitrile] | – | – | ≥ 80 | –
9 | Cc1nc(C(F)(F)F)c(C(OC(=O)c2ccccc2)=C(C#N)c2csc(C(C)(C)C)n2)s1 [II-75, 2-(2-tert-butylthiazol-4-yl)-3-(2-methyl-4-trifluoromethylthiazol-5-yl)-3-benzoyloxyacrylonitrile] | ≥ 80 | – | ≥ 80 | mortality at 500 ppm [5]: ≥ 80%; mortality at 500 ppm [2]: ≥ 80%
10 | COC(=O)OC(=C(C#N)c1ccc(C(C)(C)C)cc1)c1c(Cl)nn(C)c1Cl [IV-36, 2-(4-tert-butylphenyl)-3-(3,5-dichloro-1-methylpyrazol-4-yl)-3-methoxycarbonyloxyacrylonitrile] | – | – | ≥ 80 | –
11 | Cn1nc(Cl)c(C(O)=C(C#N)n2ccc(-c3c(F)cccc3F)n2)c1Cl [I-40, 2-{3-(2,6-difluorophenyl)pyrazol-1-yl}-3-(1-methyl-3,5-dichloropyrazol-4-yl)-3-hydroxyacrylonitrile] | ≥ 80 | 100 | ≥ 80 | mortality at 500 ppm [5]: ≥ 80%
12 | CCOCOC(=C(C#N)c1coc(C(C)(C)C)n1)c1c(C(F)(F)F)nn(C)c1Cl [V-44, 2-(2-tert-butyloxazol-4-yl)-3-(5-chloro-1-methyl-3-trifluoromethylpyrazol-4-yl)-3-ethoxymethoxyacrylonitrile] | – | – | ≥ 80 | –
